B1: Tryparedoxin (protein)
chain: MSGLAKYLPGATNLLSKSGEVSLGSLVGKTVFLYFSASWCPPCRGFTPVLAEFYEKHHVAKNFEVVLISWDENESDFHDYYGKMPWLALPFDQRSTVSELGKTFGVESIPTLITINADTGAIIGTQARTRVIEDPDGANFPWPN
modifications: ortho-CFT covalently bound to C40
B2: Tryparedoxin (protein)
chain: B1 chain
modifications: para-CFT covalently bound to C40
B3: Tryparedoxin (protein)
chain: B1 chain
B4: Tryparedoxin (protein)
chain: B1 chain
modifications: meta-CFT covalently bound to C40
B5: Tryparedoxin (protein)
chain: B1 chain
modifications: CPT covalently bound to C40
B6: Tryparedoxin (protein)
chain: B1 chain
modifications: CtFT covalently bound to C40

Where “and” joins values, the source holds several entries; their conditions need not be identical. Equal values may be shown once. Read-outs that look alike come from different tables or passages of the source. A value given as a limit tells only on which side of the number the result lay.

Data set [1] has as its target T1, Tpx WT (Trypanosoma brucei brucei, UniProt O77404).
T1 sequence (O77404 1-144): B1 chain
The data set can be described thus: biochemical. Type of data set: binding. The following applies: for rD,LILBID @ 1100 µm / rD,solution: Tpx WT with or without molecular glue; for rD,LILBID @ 1100 µm: from linear fits of dissociation plots; for rD,solution: from rD,LILBID with calibration factor f1100.

The target of data set [2] is T1, Tpx WT. Further details: method as in Schwegler et al., bioRxiv 2025. As to conditions: Tpx WT with molecular glue; previous dilution ITC; ref Schwegler et al., bioRxiv 2025; read-out: K D,ITC of Tpx homodimer; cited from earlier work.
In another data set the target is Tpx W39A (Trypanosoma brucei brucei, UniProt O77404, W39A). Nature of the data set: biochemical. Type of data set: binding.
Sequence of Tpx W39A (O77404 whole entry W39A): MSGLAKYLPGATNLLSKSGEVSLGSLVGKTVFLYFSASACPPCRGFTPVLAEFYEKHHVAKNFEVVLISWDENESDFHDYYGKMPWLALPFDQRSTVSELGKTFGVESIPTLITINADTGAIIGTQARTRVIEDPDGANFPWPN
In the next data set the target is Tpx K102A (Trypanosoma brucei brucei, UniProt O77404, K102A). The data set can be described thus: biochemical. Format: binding.
Sequence of Tpx K102A (O77404 whole entry K102A): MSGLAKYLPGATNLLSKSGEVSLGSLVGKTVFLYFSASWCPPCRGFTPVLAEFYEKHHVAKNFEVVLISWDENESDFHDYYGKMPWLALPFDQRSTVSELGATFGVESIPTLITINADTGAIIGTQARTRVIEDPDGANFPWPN
For data set [3], the target named is T2, Tpx K102E (Trypanosoma brucei brucei, UniProt O77404, K102E). The data set can be described thus: biochemical. Format: binding.
T2 sequence (O77404 whole entry K102E): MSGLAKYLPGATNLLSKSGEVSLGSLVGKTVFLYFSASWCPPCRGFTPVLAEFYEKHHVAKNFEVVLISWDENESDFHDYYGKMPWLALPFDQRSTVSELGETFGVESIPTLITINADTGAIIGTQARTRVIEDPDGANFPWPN
Data set [4] has as its target T2, Tpx K102E. Further details: method as in Schwegler et al., bioRxiv 2025. As to conditions: Tpx K102E with molecular glue; previous dilution ITC; ref Schwegler et al., bioRxiv 2025; read-out: K D,ITC of Tpx homodimer; cited from earlier work.
In the next data set the target is BSA (Bos taurus) (UniProt P02769). As to conditions: cited from earlier work.
The data set “Tryparedoxin” has as its target B3. The data set can be described thus: qLILBID-MS.
The data set “qLILBID-MS” concerns the molecule itself. Nature of the data set: qLILBID-MS.

We go through twelve molecules from PMC13088243, “Quantifying Protein Homodimer Affinities and the Effect of Molecular Glues and Interface Residues Using Native Mass Spectrometry” (Journal of the American Chemical Society, 2026).

Consider `O=c1[nH]c(CCl)nc2scc(-c3ccccc3)c12` [CPT], for which, at Tpx WT [1], the Kd was found to be 16 ± 9 µM, the “rD,LILBID @ 1100 µm” value is 0.871 ± 0.033 and the “rD,solution” value was 0.568 ± 0.088. Also, the Kd on Tpx WT [2] is 6 ± 2.2 µM.
For the molecule `O=c1[nH]c(CCl)nc2scc(-c3ccc(C(F)(F)F)cc3)c12` [CtFT], on Tpx WT [1], the Kd was 360 ± 110 µM, the “rD,LILBID @ 1100 µm” value amounted to 0.983 ± 0.004 and the “rD,solution” value is 0.932 ± 0.017. In addition, the Kd on Tpx WT [2] is 410 ± 56 µM.
`O=c1[nH]c(CCl)nc2scc(-c3cccc(F)c3)c12` [meta-CFT]: at Tpx WT [1], the Kd was found to be 6 ± 5 µM, the “rD,LILBID @ 1100 µm” value is on record as 0.809 ± 0.058 and the “rD,solution” value was 0.420 ± 0.124. In addition, on Tpx WT [2], the Kd was 3.7 ± 1.5 µM.
Turning to `O=c1[nH]c(CCl)nc2scc(-c3ccccc3F)c12` [ortho-CFT], at Tpx WT [1], the “rD,LILBID @ 1100 µm” value was 0.897 ± 0.024 and the “rD,solution” value was determined as 0.642 ± 0.072. Also, the Kd on Tpx WT [2] is 32 ± 7 µM.
On to `O=c1[nH]c(CCl)nc2scc(-c3ccc(F)cc3)c12` [para-CFT, 2-(chloromethyl)-5-(4-fluorophenyl)thieno[2,3-d]pyrimidin-4(3H)-one], for which the Kd on Tpx WT [1] is 5 ± 4 µM; at Tpx W39A, 300 ± 110 µM; on Tpx K102A (K D,LILBID of Tpx homodimer, Tpx K102A with para-CFT or none, ew 1100 μm, triplicate), 37 µM and 36 µM; at Tpx K102E [3], 70 ± 16 µM; on Tpx WT [2], 5.3 ± 1.9 µM; at Tpx K102E [4], 83 ± 32 µM. For the same molecule, the “rD,LILBID @ 1100 µm” value at Tpx WT [1] is reported as 0.798 ± 0.048; on Tpx W39A (Tpx W39A with or without para-CFT), 0.980 ± 0.006; at Tpx K102A (Tpx K102A with or without para-CFT) it was 0.914 ± 0.027; on Tpx K102E [3] (Tpx K102E with or without para-CFT), 0.942 ± 0.008. In addition, the “rD,solution” value worked out at 0.398 ± 0.099 at Tpx WT [1]; 0.921 ± 0.023 at Tpx W39A (Tpx W39A with or without para-CFT, from rD,LILBID with f1100); 0.692 ± 0.084 at Tpx K102A (Tpx K102A with or without para-CFT, from rD,LILBID with f1100); 0.782 ± 0.029 at Tpx K102E [3] (Tpx K102E with or without para-CFT, from rD,LILBID with f1100).
Regarding BSA (from UniProt P02769), in the data set with BSA (Bos taurus), the Kd was 10 µM.
In turn, B1 came in with a Kd with Tryparedoxin of 26 µM.
Consider B2, for which, in the data set with Tryparedoxin, the Kd was 5 µM.
For B3, the Kd in the data set “qLILBID-MS” was above 500 µM.
In turn, B4 yielded a Kd with Tryparedoxin of 6 µM.
The same measure, in the same setting: the result for B5 reads 16 µM; that for B6, 360 µM.
